According to patent US20120214822A1 (ASTRAZENECA AB, priority 2007, published 2012):

target: human active recombinant p38α-6His tagged (Homo sapiens, UniProt Q16539); assay: P38 Alpha Enzyme Assay (AlphaScreen, biotinylated-ATF2 substrate); type: biochemical; conditions: p38 alpha enzyme inhibition; means of replicate determinations; 4 h pre-incubation at 37° C.; SD of assay 0.2-0.3 log units;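 note: 0.5 nM final p38α, reaction started with ATP and run 45 min at 37 °C, phospho-ATF2 read by antibody-based AlphaScreen, background wells quenched with EDTA before ATP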
Sequence (Q16539 whole entry): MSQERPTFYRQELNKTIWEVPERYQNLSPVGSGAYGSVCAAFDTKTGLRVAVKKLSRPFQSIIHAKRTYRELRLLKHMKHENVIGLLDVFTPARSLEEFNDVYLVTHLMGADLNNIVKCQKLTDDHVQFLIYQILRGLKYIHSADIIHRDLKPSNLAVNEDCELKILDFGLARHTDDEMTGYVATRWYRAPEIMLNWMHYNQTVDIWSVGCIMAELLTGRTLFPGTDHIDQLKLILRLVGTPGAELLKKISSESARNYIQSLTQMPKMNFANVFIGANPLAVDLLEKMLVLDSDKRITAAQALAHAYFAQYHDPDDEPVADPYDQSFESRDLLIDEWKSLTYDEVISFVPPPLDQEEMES

Compound | pIC50 | IC50 [nM]
4-Methyl-3-[3-[[[4-(4-methyl-1-piperazinyl)phenyl]methyl]amino]-2-oxo-1(2H)-pyrazinyl]-N-(1-methylpropyl)-benzamide [Example 14] | 6 | 
CNCCCOc1ccccc1[C@H]1CCCN1c1nccn(-c2cc(C(=O)NC3CC3)ccc2C)c1=O (single isomer, unassigned) [Example 325] |  | 1.26
CNCCCOc1ccccc1[C@@H]1CCCN1c1nccn(-c2cc(C(=O)NC3CC3)ccc2C)c1=O (single isomer, unassigned) [Example 326] |  | 25.1
Cc1ccc(C(=O)NC2CC2)cc1-n1ccnc(NCc2ccccc2F)c1=O [Example 1, N-Cyclopropyl-3-[3-(2-fluoro-benzylamino)-2-oxo-2H-pyrazin-1-yl]-4-methyl-benzamide] | 7.4 | 
Cc1ccc(C(=O)NC2CC2)cc1-n1ccnc(N2CCN(C)CC2)c1=O [Example 2, N-Cyclopropyl-4-methyl-3-[3-(4-methyl-1-piperazinyl)-2-oxo-1(2H)-pyrazinyl]-benzamide] | 6.4 | 
Cc1ccc(C(=O)NC2CC2)cc1-n1ccnc(NCCCN(C)C)c1=O [Example 3, N-Cyclopropyl-3-[3-[[3-(dimethylamino)propyl]amino]-2-oxo-1(2H)-pyrazinyl]-4-methyl-benzamide] | 6.1 | 
Cc1ccc(C(=O)NC2CC2)cc1-n1ccnc(NCCCN2CCN(C)CC2)c1=O [Example 4, N-Cyclopropyl-4-methyl-3-[3-[[3-(4-methyl-1-piperazinyl)propyl]amino]-2-oxo-1(2H)-pyrazinyl]-benzamide] | 6.1 | 
Cc1ccc(C(=O)NC2CC2)cc1-n1ccnc(NCCN(C)C)c1=O [Example 5, N-Cyclopropyl-3-[3-[[2-(dimethylamino)ethyl]amino]-2-oxo-1(2H)-pyrazinyl]-4-methyl-benzamide] | 5.9 | 
Cc1ccc(C(=O)NC2CC2)cc1-n1ccnc(NCCCN2CCOCC2)c1=O [Example 6, N-Cyclopropyl-4-methyl-3-[3-[[3-(4-morpholinyl)propyl]amino]-2-oxo-1(2H)-pyrazinyl]-benzamide] | 6.5 | 
COCCCNc1nccn(-c2cc(C(=O)NC3CC3)ccc2C)c1=O [Example 8, N-Cyclopropyl-3-[3-[(3-methoxypropyl)amino]-2-oxo-1(2H)-pyrazinyl]-4-methyl-benzamide] | 6.4 | 
Cc1ccc(C(=O)NC2CC2)cc1-n1ccnc(NCCc2ccccn2)c1=O [Example 9, N-Cyclopropyl-4-methyl-3-[2-oxo-3-[[2-(2-pyridinyl)ethyl]amino]-1(2H)-pyrazinyl]-benzamide] | 6.3 | 
Cc1ccc(C(=O)NC2CC2)cc1-n1ccnc(N[C@@H]2CCc3ccccc32)c1=O [Example 17, N-Cyclopropyl-3-[3-[[(1R)-2,3-dihydro-1H-inden-1-yl]amino]-2-oxo-1(2H)-pyrazinyl]-4-methyl-benzamide] | 6.6 | 
Cc1ccc(C(=O)NC2CC2)cc1-n1ccnc(NCc2cccc(F)c2)c1=O [Example 22, N-Cyclopropyl-3-[3-[[(3-fluorophenyl)methyl]amino]-2-oxo-1(2H)-pyrazinyl]-4-methyl-benzamide] | 7 | 
Cc1ccc(C(=O)NC2CC2)cc1-n1ccnc(NCc2ccccn2)c1=O [Example 23, N-Cyclopropyl-4-methyl-3-[2-oxo-3-[(2-pyridinylmethyl)amino]-1(2H)-pyrazinyl]-benzamide] | 6.9 | 
Cc1ccc(C(=O)NC2CC2)cc1-n1ccnc(NCc2cccnc2)c1=O [Example 24, N-Cyclopropyl-4-methyl-3-[2-oxo-3-[(3-pyridinylmethyl)amino]-1(2H)-pyrazinyl]-benzamide] | 6.3 | 
Cc1ccc(C(=O)NC2CC2)cc1-n1ccnc(NCc2ccc(S(C)(=O)=O)cc2)c1=O [Example 25, N-Cyclopropyl-4-methyl-3-[3-[[[4-(methylsulfonyl)phenyl]methyl]amino]-2-oxo-1(2H)-pyrazinyl]-benzamide] | 5.5 | 
Cc1ccc(C(=O)NC2CC2)cc1-n1ccnc(NCc2nc3ccccc3[nH]2)c1=O [Example 27, 3-[3-[(1H-Benzimidazol-2-ylmethyl)amino]-2-oxo-1(2H)-pyrazinyl]-N-cyclopropyl-4-methyl-benzamide] | 6.4 | 
Cc1ccc(C(=O)NC2CC2)cc1-n1ccnc(NCc2cnc3ccccc3c2)c1=O [Example 28, N-Cyclopropyl-4-methyl-3-[2-oxo-3-[(3-quinolinylmethyl)amino]-1(2H)-pyrazinyl]-benzamide] | 6.2 | 
Cc1ccc(C(=O)NC2CC2)cc1-n1ccnc(NCC2CNc3ccccc3C2)c1=O (stereo not drawn) [Example 29, N-Cyclopropyl-4-methyl-3-[2-oxo-3-[[(1,2,3,4-tetrahydro-3-quinolinyl)methyl]amino]-1(2H)-pyrazinyl]-benzamide] | 7 | 
Cc1ccc(C(=O)NC2CC2)cc1-n1ccnc(N2CCc3ccccc3C2)c1=O [Example 30, N-Cyclopropyl-3-[3-(3,4-dihydro-2(1H)-isoquinolinyl)-2-oxo-1(2H)-pyrazinyl]-4-methyl-benzamide] |  | 126

Compound | pIC50 | IC50 [nM]
Cc1ccc(C(=O)NC2CC2)cc1-n1ccnc(NCc2cccs2)c1=O [Example 31, N-Cyclopropyl-4-methyl-3-[2-oxo-3-[(2-thienylmethyl)amino]-1(2H)-pyrazinyl]-benzamide] | 7 | 
Cc1ccc(C(=O)NC2CC2)cc1-n1ccnc(NCc2ccc3c(c2)OCO3)c1=O [Example 32, 3-[3-[(1,3-Benzodioxol-5-ylmethyl)amino]-2-oxo-1(2H)-pyrazinyl]-N-cyclopropyl-4-methyl-benzamide] | 6.8 | 
Cc1ccc(C(=O)NC2CC2)cc1-n1ccnc(NCc2ccc(F)cc2)c1=O [Example 33, N-Cyclopropyl-3-[3-[[(4-fluorophenyl)methyl]amino]-2-oxo-1(2H)-pyrazinyl]-4-methyl-benzamide] | 7.5 | 
Cc1ccc(C(=O)NC2CC2)cc1-n1ccnc(NC(CN2CCCC2)c2ccccc2)c1=O (stereo not drawn) [Example 34, N-Cyclopropyl-4-methyl-3-[2-oxo-3-[[1-phenyl-2-(1-pyrrolidinyl)ethyl]amino]-1(2H)-pyrazinyl]-benzamide] | 6.4 | 
Cc1ccc(C(=O)NC2CC2)cc1-n1ccnc(NCC2(c3ccccc3)CCN(C)CC2)c1=O [Example 35, N-Cyclopropyl-4-methyl-3-[3-[[(1-methyl-4-phenyl-4-piperidinyl)methyl]amino]-2-oxo-1(2H)-pyrazinyl]-benzamide] |  | 251
Cc1ccc(C(=O)NC2CC2)cc1-n1ccnc(NCCCc2ccccc2)c1=O [Example 36, N-Cyclopropyl-4-methyl-3-[2-oxo-3-[(3-phenylpropyl)amino]-1(2H)-pyrazinyl]-benzamide] | 6.8 | 
Cc1ccc(C(=O)NC2CC2)cc1-n1ccnc(NCc2ccc(C(C)(C)C)cc2)c1=O [Example 37, N-Cyclopropyl-3-[3-[[[4-(1,1-dimethylethyl)phenyl]methyl]amino]-2-oxo-1(2H)-pyrazinyl]-4-methyl-benzamide] | 6.1 | 
Cc1ccccc1CNc1nccn(-c2cc(C(=O)NC3CC3)ccc2C)c1=O [Example 39, N-Cyclopropyl-4-methyl-3-[3-[[(2-methylphenyl)methyl]amino]-2-oxo-1(2H)-pyrazinyl]-benzamide] | 7.5 | 
Cc1ccc(C(=O)NC2CC2)cc1-n1ccnc(NCc2cccc(CN3CCN(C)CC3)c2)c1=O [Example 40, N-Cyclopropyl-4-methyl-3-[3-[[[3-[(4-methyl-1-piperazinyl)methyl]phenyl]methyl]amino]-2-oxo-1(2H)-pyrazinyl]-benzamide] | 6.7 | 
Cc1ccc(C(=O)NC2CC2)cc1-n1ccnc(NCc2ccccc2CN2CCN(C)CC2)c1=O [Example 41, N-Cyclopropyl-4-methyl-3-[3-[[[2-[(4-methyl-1-piperazinyl)methyl]phenyl]methyl]amino]-2-oxo-1(2H)-pyrazinyl]-benzamide] | 7 | 
Cc1ccc(CNc2nccn(-c3cc(C(=O)NC4CC4)ccc3C)c2=O)cc1 [Example 42, N-Cyclopropyl-4-methyl-3-[3-[[(4-methylphenyl)methyl]amino]-2-oxo-1(2H)-pyrazinyl]-benzamide] | 6.4 | 
Cc1ccc(C(=O)NC2CC2)cc1-n1ccnc(NCc2ccccc2-c2ccccc2)c1=O [Example 44, 3-[3-[([1,1′-Biphenyl]-2-ylmethyl)amino]-2-oxo-1(2H)-pyrazinyl]-N-cyclopropyl-4-methyl-benzamide] | 7.6 | 
Cc1ccc(C(=O)NC2CC2)cc1-n1ccnc(NCc2ccc(Oc3ccccc3)cc2)c1=O [Example 45, N-Cyclopropyl-4-methyl-3-[2-oxo-3-[[(4-phenoxyphenyl)methyl]amino]-1(2H)-pyrazinyl]-benzamide] | 6.5 | 
Cc1cccc(CNc2nccn(-c3cc(C(=O)NC4CC4)ccc3C)c2=O)c1 [Example 46, N-Cyclopropyl-4-methyl-3-[3-[[(3-methylphenyl)methyl]amino]-2-oxo-1(2H)-pyrazinyl]-benzamide] | 8 | 
Cc1ccc(C(=O)NC2CC2)cc1-n1ccnc(N[C@H]2C[C@@H]2c2ccccc2)c1=O [Example 47, N-Cyclopropyl-4-methyl-3-[2-oxo-3-[[(1S,2R)-2-phenylcyclopropyl]amino]-1(2H)-pyrazinyl]-benzamide] | 7.2 | 
Cc1ccc(C(=O)NC2CC2)cc1-n1ccnc(NCC(C)(C)C)c1=O [Example 49, N-Cyclopropyl-3-[3-[(2,2-dimethylpropyl)amino]-2-oxo-1(2H)-pyrazinyl]-4-methyl-benzamide] | 6.9 | 
Cc1ccc(C(=O)NC2CC2)cc1-n1ccnc(N2CCNC(c3ccccc3)C2)c1=O (stereo not drawn) [Example 53, N-Cyclopropyl-4-methyl-3-[2-oxo-3-(3-phenyl-1-piperazinyl)-1(2H)-pyrazinyl]-benzamide] | 7.4 | 
Cc1ccc(C(=O)NC2CC2)cc1-n1ccnc(N2CCC(c3ccccc3)C2)c1=O (stereo not drawn) [Example 54, N-Cyclopropyl-4-methyl-3-[2-oxo-3-(3-phenyl-1-pyrrolidinyl)-1(2H)-pyrazinyl]-benzamide] | 6.5 | 
Cc1ccc(C(=O)NC2CC2)cc1-n1ccnc(NC[C@H](O)c2ccccc2)c1=O [Example 55, N-Cyclopropyl-3-[3-[[(2R)-2-hydroxy-2-phenylethyl]amino]-2-oxo-1(2H)-pyrazinyl]-4-methyl-benzamide] | 6.5 | 
